Measurements as given in PubChem BioAssay AID2060501 (Molecular Pharmacology Branch, DTP, NCI, 2025).

Tested on: 282377-053-R-J1-PDC complex spheroids, viability
Assay: Anticancer human tumor 282377-053-R-J1-PDC patient-derived colon adenocarcinoma cell line growth inhibition [GQUAD]
Details: for IC50: curve of first compound; for viability, T/C: stronger effect = lower value
Outline: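 Tumor cells were grown as complex spheroids with HUVEC endothelial cells and mesenchymal stem cells as stroma. G-quadruplex stabilizers were combined with targeted agents over half-log dilutions from near the clinical Cmax, or from 10 microM.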

[1] = second compound 0.0316 µM, first compound 0.0316 µM
[2] = second compound 0.0316 µM, first compound 0.1 µM
[3] = second compound 0.0316 µM, first compound 0.316 µM
[4] = second compound 0.0316 µM, first compound 1 µM
[5] = second compound 0.0316 µM, first compound 3.16 µM
[6] = second compound 0.0316 µM, first compound 10 µM
[7] = second compound 0.1 µM, first compound 0.0316 µM
[8] = second compound 0.1 µM, first compound 0.1 µM
[9] = second compound 0.1 µM, first compound 0.316 µM
[10] = second compound 0.1 µM, first compound 1 µM
[11] = second compound 0.1 µM, first compound 3.16 µM
[12] = second compound 0.1 µM, first compound 10 µM
[13] = second compound 0.316 µM, first compound 0.0316 µM
[14] = second compound 0.316 µM, first compound 0.1 µM
[15] = second compound 0.316 µM, first compound 0.316 µM
[16] = second compound 0.316 µM, first compound 1 µM
[17] = second compound 0.316 µM, first compound 3.16 µM
[18] = second compound 0.316 µM, first compound 10 µM
[19] = second compound 1 µM, first compound 0.0316 µM
[20] = second compound 1 µM, first compound 0.1 µM
[21] = second compound 1 µM, first compound 0.316 µM
[22] = second compound 1 µM, first compound 1 µM
[23] = second compound 1 µM, first compound 3.16 µM
[24] = second compound 1 µM, first compound 10 µM
[25] = second compound 3.16 µM, first compound 0.0316 µM
[26] = second compound 3.16 µM, first compound 0.1 µM
[27] = second compound 3.16 µM, first compound 0.316 µM
[28] = second compound 3.16 µM, first compound 1 µM
[29] = second compound 3.16 µM, first compound 3.16 µM
[30] = second compound 3.16 µM, first compound 10 µM
[31] = second compound 10 µM, first compound 0.0316 µM
[32] = second compound 10 µM, first compound 0.1 µM
[33] = second compound 10 µM, first compound 0.316 µM
[34] = second compound 10 µM, first compound 1 µM
[35] = second compound 10 µM, first compound 3.16 µM
[36] = second compound 10 µM, first compound 10 µM
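Note: spheroids exposed to compounds for 7 days before readout.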
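Throughout, for viability, T/C: percent of vehicle DMSO control viability with 100% = untreated-like growth.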

With C#Cc1c(F)ccc2cc(O)cc(-c3ncc4c(N5CC6CCC(C5)N6)nc(OCC56CCCN5CC(F)C6)nc4c3F)c12 (stereo unspecified) + CN(C)c1ccc(Nc2c3ccc(NC(=O)CCN4CCCC4)cc3nc3cc(NC(=O)CCN4CCCC4)ccc23)cc1 the IC50 (second compound 0.0316 µM) was greater than 10 µM, the IC50 (second compound 0.1 µM) was greater than 10 µM and the IC50 (second compound 0.316 µM) was greater than 10 µM. For the same compound, the IC50 (second compound 1 µM) was greater than 10 µM, the IC50 (second compound 3.16 µM) was greater than 10 µM and the IC50 (second compound 10 µM) was greater than 10 µM. It also gave a viability, T/C [1] of 98%, a viability, T/C [2] of 108% and a viability, T/C [3] of 89.1%. It also gave a viability, T/C [4] of 98.2%, a viability, T/C [5] of 84.2% and a viability, T/C [6] of 82.4%. The viability, T/C [7] was 103%, the viability, T/C [8] was 97.1% and the viability, T/C [9] was 79.2%. The viability, T/C [10] was 74.5%, the viability, T/C [11] was 88.7% and the viability, T/C [12] was 67.6%. The viability, T/C [13] was 93.7%, the viability, T/C [14] was 87.7% and the viability, T/C [15] was 87.4%. For the same compound, the viability, T/C [16] was 79.9%, the viability, T/C [17] was 73.1% and the viability, T/C [18] was 74%. The viability, T/C [19] was 87.5%, the viability, T/C [20] was 78.1% and the viability, T/C [21] was 70.7%. The viability, T/C [22] was 89.9%, the viability, T/C [23] was 91.2% and the viability, T/C [24] was 78.4%. For the same compound, the viability, T/C [25] was 78.9%, the viability, T/C [26] was 75.2% and the viability, T/C [27] was 86.6%. It also gave a viability, T/C [28] of 77.3%, a viability, T/C [29] of 91.7% and a viability, T/C [30] of 88.7%. The viability, T/C [31] was 83.1%, the viability, T/C [32] was 81.8% and the viability, T/C [33] was 91.8%. It also gave a viability, T/C [34] of 73.5%, a viability, T/C [35] of 90.8% and a viability, T/C [36] of 87.6%.
C=CCn1c(=O)c2cnc(Nc3ccc(N4CCN(C)CC4)cc3)nc2n1-c1cccc(C(C)(C)O)n1 + CN(C)c1ccc(Nc2c3ccc(NC(=O)CCN4CCCC4)cc3nc3cc(NC(=O)CCN4CCCC4)ccc23)cc1 showed an IC50 (second compound 0.0316 µM) of 1.91 µM, an IC50 (second compound 0.1 µM) of 1.98 µM and an IC50 (second compound 0.316 µM) of 2.04 µM. The IC50 (second compound 1 µM) was 1.86 µM, the IC50 (second compound 3.16 µM) was 1.8 µM and the IC50 (second compound 10 µM) was 2.32 µM. The viability, T/C [1] was 94.2%, the viability, T/C [2] was 99.9% and the viability, T/C [3] was 83.3%. The viability, T/C [4] was 75.2%, the viability, T/C [5] was 30.8% and the viability, T/C [6] was 16.7%. The viability, T/C [7] was 108%, the viability, T/C [8] was 95.3% and the viability, T/C [9] was 82.7%. For the same compound, the viability, T/C [10] was 73.3%, the viability, T/C [11] was 33.9% and the viability, T/C [12] was 15.1%. The viability, T/C [13] was 105%, the viability, T/C [14] was 84.8% and the viability, T/C [15] was 74.5%. The viability, T/C [16] was 90.1%, the viability, T/C [17] was 26.5% and the viability, T/C [18] was 16.1%. It also gave a viability, T/C [19] of 85.2%, a viability, T/C [20] of 90.9% and a viability, T/C [21] of 94.2%. The viability, T/C [22] was 76.4%, the viability, T/C [23] was 27.5% and the viability, T/C [24] was 16.7%. For the same compound, the viability, T/C [25] was 92.8%, the viability, T/C [26] was 82.5% and the viability, T/C [27] was 92.8%. The viability, T/C [28] was 68.5%, the viability, T/C [29] was 31.8% and the viability, T/C [30] was 16.1%. The viability, T/C [31] was 86.7%, the viability, T/C [32] was 78.3% and the viability, T/C [33] was 104%. The viability, T/C [34] was 78.4%, the viability, T/C [35] was 39.1% and the viability, T/C [36] was 15.3%.
With CC(C)(O)C1CCC(Nc2ccc3ncc(-c4cccc(C(F)(F)F)c4)n3n2)CC1 (stereo unspecified) + CN(C)c1ccc(Nc2c3ccc(NC(=O)CCN4CCCC4)cc3nc3cc(NC(=O)CCN4CCCC4)ccc23)cc1 the IC50 (second compound 0.0316 µM) was 1.8 µM, the IC50 (second compound 0.1 µM) was 2.15 µM and the IC50 (second compound 0.316 µM) was 2 µM. For the same compound, the IC50 (second compound 1 µM) was 1.75 µM, the IC50 (second compound 3.16 µM) was 1.65 µM and the IC50 (second compound 10 µM) was 1.43 µM. For the same compound, the viability, T/C [1] was 121%, the viability, T/C [2] was 100% and the viability, T/C [3] was 74%. It also gave a viability, T/C [4] of 76.4%, a viability, T/C [5] of 21% and a viability, T/C [6] of 29%. For the same compound, the viability, T/C [7] was 123%, the viability, T/C [8] was 85% and the viability, T/C [9] was 76.7%. For the same compound, the viability, T/C [10] was 87.4%, the viability, T/C [11] was 22.7% and the viability, T/C [12] was 39.8%. The viability, T/C [13] was 106%, the viability, T/C [14] was 86% and the viability, T/C [15] was 64.9%. The viability, T/C [16] was 86.5%, the viability, T/C [17] was 22.2% and the viability, T/C [18] was 29.8%. For the same compound, the viability, T/C [19] was 94%, the viability, T/C [20] was 75.4% and the viability, T/C [21] was 85.6%. For the same compound, the viability, T/C [22] was 73.1%, the viability, T/C [23] was 19.6% and the viability, T/C [24] was 31.3%. For the same compound, the viability, T/C [25] was 100%, the viability, T/C [26] was 97.2% and the viability, T/C [27] was 105%. The viability, T/C [28] was 71%, the viability, T/C [29] was 23.4% and the viability, T/C [30] was 21.8%. For the same compound, the viability, T/C [31] was 97.3%, the viability, T/C [32] was 95.5% and the viability, T/C [33] was 83.2%. For the same compound, the viability, T/C [34] was 64.7%, the viability, T/C [35] was 18.3% and the viability, T/C [36] was 19.1%.
